These results are taken from ChEMBL document CHEMBL1156290, “Identification of amide bioisosteres of triazole oxytocin antagonists” (Bioorg Med Chem Lett, 2010).

Holding throughout (type): functional
The target in one assay is T1, Oxytocin receptor (Homo sapiens, UniProt P30559).
T1 sequence (P30559 whole entry): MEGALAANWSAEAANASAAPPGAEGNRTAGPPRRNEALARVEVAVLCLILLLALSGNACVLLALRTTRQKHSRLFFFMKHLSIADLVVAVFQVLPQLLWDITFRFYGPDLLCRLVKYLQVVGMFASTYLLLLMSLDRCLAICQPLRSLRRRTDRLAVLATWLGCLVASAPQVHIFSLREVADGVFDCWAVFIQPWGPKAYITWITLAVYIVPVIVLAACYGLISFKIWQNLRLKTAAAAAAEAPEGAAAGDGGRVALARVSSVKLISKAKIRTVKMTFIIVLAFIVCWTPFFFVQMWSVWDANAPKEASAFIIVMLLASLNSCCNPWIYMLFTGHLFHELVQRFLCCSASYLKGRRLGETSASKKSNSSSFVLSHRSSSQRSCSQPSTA
Nature of the assay: Antagonist activity at human cloned OT receptor by cell based beta-lactamase reporter gene assay. In general terms: In a reporter assay the amount or activity of a reporter protein is the signal.

The target of the next assay is Vasopressin V1a receptor (Homo sapiens, UniProt P37288). Nature of the assay: Antagonist activity at human cloned vasopressin V1A receptor by cell based beta-lactamase reporter gene assay.
Sequence of Vasopressin V1a receptor (P37288 whole entry): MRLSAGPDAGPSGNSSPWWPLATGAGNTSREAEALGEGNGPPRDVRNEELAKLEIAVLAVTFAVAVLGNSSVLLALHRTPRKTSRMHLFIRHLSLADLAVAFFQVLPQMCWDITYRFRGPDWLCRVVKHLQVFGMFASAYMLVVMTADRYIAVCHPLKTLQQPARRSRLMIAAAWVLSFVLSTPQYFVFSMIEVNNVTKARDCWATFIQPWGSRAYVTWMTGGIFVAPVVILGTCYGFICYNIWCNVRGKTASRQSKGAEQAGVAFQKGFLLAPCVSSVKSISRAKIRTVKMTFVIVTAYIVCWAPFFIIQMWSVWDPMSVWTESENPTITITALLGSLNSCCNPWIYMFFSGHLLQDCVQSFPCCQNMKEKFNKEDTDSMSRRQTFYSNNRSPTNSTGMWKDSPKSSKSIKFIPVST
In the next assay the target is Vasopressin V2 receptor (Homo sapiens, UniProt P30518). Nature of the assay: Antagonist activity at human cloned vasopressin V2 receptor by cell based beta-lactamase reporter gene assay.
Sequence of Vasopressin V2 receptor (P30518 whole entry): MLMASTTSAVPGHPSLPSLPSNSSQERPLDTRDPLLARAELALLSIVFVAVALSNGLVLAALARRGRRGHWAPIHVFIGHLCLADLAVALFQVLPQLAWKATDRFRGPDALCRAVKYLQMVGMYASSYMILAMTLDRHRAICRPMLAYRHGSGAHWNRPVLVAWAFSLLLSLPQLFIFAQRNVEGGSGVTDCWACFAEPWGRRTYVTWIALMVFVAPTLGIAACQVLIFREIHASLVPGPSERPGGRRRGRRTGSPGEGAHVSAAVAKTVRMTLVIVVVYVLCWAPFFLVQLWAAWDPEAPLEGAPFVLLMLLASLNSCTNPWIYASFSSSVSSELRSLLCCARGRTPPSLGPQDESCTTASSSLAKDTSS
Assay [1] addresses T2, Vasopressin V1b receptor (Homo sapiens) (UniProt P47901).
T2 sequence (whole entry): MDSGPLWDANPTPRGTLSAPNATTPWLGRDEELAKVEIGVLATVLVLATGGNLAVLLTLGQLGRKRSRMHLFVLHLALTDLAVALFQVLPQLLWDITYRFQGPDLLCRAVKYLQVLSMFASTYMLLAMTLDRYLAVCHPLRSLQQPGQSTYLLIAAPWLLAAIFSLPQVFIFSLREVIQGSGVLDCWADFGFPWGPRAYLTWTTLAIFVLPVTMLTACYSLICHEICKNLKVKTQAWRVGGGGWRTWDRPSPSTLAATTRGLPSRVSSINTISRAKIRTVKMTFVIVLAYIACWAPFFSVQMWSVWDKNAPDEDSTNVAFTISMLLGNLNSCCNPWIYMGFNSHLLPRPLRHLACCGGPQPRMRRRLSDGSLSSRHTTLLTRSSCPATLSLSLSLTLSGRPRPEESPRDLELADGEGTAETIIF
Briefly: Antagonist activity at human cloned vasopressin V1B receptor at 10 uM by cell based beta-lactamase reporter gene assay. Also on record: scale not given: the % may be the effect or the level left.

Molecules are shown by their SMILES.

In the case of `COc1ccc(N(C)C(=O)c2cnc(-c3ccccc3C)cn2)cn1`, the Ki – broadly, the dissociation constant of the complex between target and ligand, obtained from inhibition or displacement – at Oxytocin receptor was 92 nM; at Vasopressin V1a receptor, 1100 nM; on Vasopressin V2 receptor, greater than 10000 nM.

At Oxytocin receptor, `CCN(C(=O)c1cnn(-c2ccccc2)c1C)c1ccc(OC)nc1` yielded a Ki of 85 nM.

Consider `COCCN(C(=O)c1cnc(-c2ccccc2C)cn1)c1ccc(OC)nc1`, for which the Ki was 115 nM on Oxytocin receptor, 3300 nM on Vasopressin V1a receptor and greater than 10000 nM on Vasopressin V2 receptor.

Consider `COCCN(C(=O)c1cnn(-c2ccccc2)c1C)c1ccc(OC)nc1`, for which the affinity on Oxytocin receptor corresponds to a Ki of 98 nM.

`COCCN(C(=O)c1cnc(-c2ccc(C#N)cc2C)cn1)c1ccc(OC)nc1`: the Ki on Oxytocin receptor was 433 nM; on Vasopressin V1a receptor, 12000 nM; on Vasopressin V2 receptor it was greater than 10000 nM.

Molecule `CCN(C(=O)c1cnn(-c2ccc(OC)cc2)c1C)c1ccc(OC)nc1` came in with a Ki on Oxytocin receptor of 91 nM.

On to `CCN(C(=O)c1cnc(-c2ccccc2C)cn1)c1ccc(OC)nc1`, for which the inhibition constant (Ki) was 129 nM at Oxytocin receptor, 2300 nM at Vasopressin V1a receptor and greater than 10000 nM at Vasopressin V2 receptor.

In turn, `CCN(C(=O)c1cc2cc(OC)ccc2o1)c1ccc(OC)nc1` returned a Ki at Oxytocin receptor of 85 nM.

Consider `CCN(C(=O)COc1ccc(C(C)C)cc1)c1ccc(OC)nc1`, for which affinity at Oxytocin receptor was put at a Ki of 251 nM.

On to `COc1ccc(N(C)C(=O)c2cnc(-c3ccc(F)cc3C)cn2)cn1`, for which the Ki on Oxytocin receptor stood at 218 nM; at Vasopressin V1a receptor, 2000 nM.

Turning to `CCN(C(=O)c1cnc(-c2cccc(F)c2C)cn1)c1ccc(OC)nc1`, the results for the Ki at Oxytocin receptor, on Vasopressin V1a receptor and at Vasopressin V2 receptor were 29 nM, 5900 nM and 343 nM, respectively.

In the case of `COc1ccc(N(C)C(=O)c2cnc(-c3ccc(C#N)cc3C)cn2)cn1`, the values for the inhibitory constant (Ki) on Oxytocin receptor, on Vasopressin V1a receptor and at Vasopressin V2 receptor were 620 nM, greater than 10000 nM and greater than 10000 nM, respectively.

In the case of `CCN(C(=O)c1cnc(-c2cccc(C)c2C)cn1)c1ccc(OC)nc1`, the inhibition constant (Ki) was determined as 25 nM at Oxytocin receptor, 472 nM at Vasopressin V1a receptor and 2830 nM on Vasopressin V2 receptor. The Activity in assay [1] is less than 20%.

`COc1ccc(N(C(=O)c2cnc(-c3cccc(C)c3C)cn2)C(C)C)cn1`: the Ki on Oxytocin receptor was 14 nM; at Vasopressin V1a receptor, greater than 10000 nM; on Vasopressin V2 receptor, 2300 nM.

As to `CCN(C(=O)c1cnc(-c2ccc(C#N)cc2C)cn1)c1ccc(OC)nc1`, the Ki at Oxytocin receptor is 393 nM; on Vasopressin V1a receptor it was 7200 nM; on Vasopressin V2 receptor, greater than 10000 nM.

In turn, `CCN(C(=O)COc1ccc2ccccc2c1)c1ccc(OC)nc1` yielded a Ki at Oxytocin receptor of 48 nM.

The molecule `CCN(C(=O)c1ccc(-c2ccc(OC)cc2)[nH]c1=O)c1ccc(OC)nc1` came in with a Ki at Oxytocin receptor of 84 nM.

In turn, `COc1ccc(N(C)C(=O)c2ccc(-c3ccccc3)cc2)cn1` came in with a Ki at Oxytocin receptor of 90 nM.

With `COc1ccc(N(C(=O)c2cnc(-c3ccccc3C)cn2)C(C)C)cn1`, the Ki at Oxytocin receptor is 150 nM; at Vasopressin V1a receptor it was greater than 10000 nM; on Vasopressin V2 receptor it was greater than 10000 nM.

For the molecule `COCCN(C(=O)c1cnc(-c2cccc(C)c2C)cn1)c1ccc(OC)nc1`, the inhibition constant (Ki) at Oxytocin receptor worked out at 11 nM; on Vasopressin V1a receptor it was 539 nM; on Vasopressin V2 receptor, 2400 nM. For the same molecule, the Activity in assay [1] is less than 20%.

In turn, `COc1ccc2oc(C(=O)N(C)c3ccc(OC)nc3)cc2c1` gave a Ki on Oxytocin receptor of 232 nM.

For the molecule `CCN(C(=O)c1cc(-c2ccc(C)cc2)n[nH]1)c1ccc(OC)nc1`, the inhibition constant (Ki) on Oxytocin receptor came to 41 nM.

Regarding `CCN(C(=O)c1ccc(-c2ccccc2)[nH]c1=O)c1ccc(OC)nc1`, the Ki at Oxytocin receptor turned out to be 97 nM.
